Assay results taken from US20180282279A1, “Pantothenamide Analogues” (Radboud Universitair Medisch Centrum, priority 2014, published 2018).
In brackets after ≈: the same amount, converted by molar mass. Read-outs that look alike come from different tables or passages of the source.

Legend:
Type in all cases: cell-based
[1] = tested on: Plasmodium falciparum NF54 parasites; test: P. falciparum asexual blood stage replication assay (SYBR Green); conditions: NF54, 10% human serum, 72 incubation
Experimental: Compounds were tested on their ability to inhibit replication of the human malaria parasite Plasmodium falciparum. To this end, Plasmodium falciparum NF54 parasites were cultured in RPMI1640 medium supplemented with 367 μM hypoxanthine, 25 mM HEPES, 25 mM sodiumbicarbonate and 10% human type A serum in an automated large-scale culture system as described before (Transactions of the Royal Society of Tropical Medicine and Hygiene, 1982. 76: p. 812-818). Compounds were diluted in DMSO and subsequently in culture medium to reach a DMSO concentration of 0.2%. 50 μl of diluted compound was transferred to a black 96 well plate. A culture of P. falciparum strain NF54 malaria parasites was diluted to a parasitaemia of 0.5% and a hematocrit of 3%. 50 μl of this diluted culture was added to each well in the 96 well plate._The outermost wells of the plate were filled with sterile water to prevent evaporation. The established antimalarial dihydroartemisinin (DHA) in DMSO acted as a positive control (MIN signal), and 0.1% DMSO acted as a negative control (MAX signal). The plates were incubated for 72 at 37° C., 3% 02, 5% CO2, 93% N2. Changes in parasite replication relative to the controls were monitored using the DNA-marker SYBR Green as described previously (Antimicrob Agents Chemother 48:1803-6). Data were analyzed by logistic regression using the formula: Y=Bottom+(Top-Bottom)/(1+10̂((Log IC50−X)*HillSlope)) and a least squares method to find the best fit.
Using similar methods, IC50 values were determined for a variety of inverted pantothenamides, as listed in table 1 (see section: ‘Detailed description of the invention’)

Streptococcus pyogenes = test: Bacterial growth assay and MIC determination, S. pyogenes; conditions: Streptococcus pyogenes; Table 1; most sensitive species S. pyogenes (SP); read-out: MIC (μg/ml) for most sensitive bacterial species
Experimental: (§1) Strains of Escherichia coli, Staphylococcus aureus and Staphylococcus epidermidis, were grown overnight in 1% Bacto tryptone medium (BD, Sparks, Md.). Streptococcus pyogenes was grown overnight in Bacto Todd Hewitt Broth medium (BD, Sparks, Md.). Cultures were then diluted 1:1,000 in fresh assay medium supplemented with or without 20% fetal bovine serum (FBS; HyClone, Celbio, Logan, Utah) and added to 96-well sterile enzyme-linked immunosorbent assay (ELISA) plates (100 μl per well). The compounds to be tested were diluted in the medium without serum and added to the bacteria (100 μl per well). Plates were incubated at 37° C., and bacterial growth was monitored over time by reading the optical density at 490 nm using a microplate reader (model 450; Bio-Rad Laboratories Inc., Hercules, Calif.). Streptococcus pneumoniae strains were grown to mid-log phase (OD620 of 0.3) and stored in 15% glycerol at […] till further use. Minimal inhibitory concentration (MIC) of antibiotics was determined according to standard procedures. Bacteria were diluted 10-fold in Mueller-Hinton medium (BD, Sparks, Md.) and added to 96-well sterile ELISA plates (150 μl per well). The compounds to be tested were diluted in the medium without serum and added to the bacteria (150 μl per well). Plates were incubated overnight at 37° C. in 5% CO2. The MIC was defined as the lowest concentration of compound at which no growth was visible with the naked eye.

[2] = tested on: Staphylococcus epidermidis; test: Bacterial growth assay and MIC determination, S. epidermidis; conditions: Staphylococcus epidermidis; Table 1; most sensitive species S. epidermidis (SE); read-out: MIC (μg/ml) for most sensitive bacterial species
Experimental: as §1

[3] = tested on: S. aureus (SA), S. epidermidis (SE), S. pyogenes (SP), S. pneumoniae (SPn); test: MIC for most sensitive bacterial species (panel); conditions: Table 1, no species named, read-out: MIC (μg/ml) for most sensitive bacterial species
Experimental: as §1

Row | Structure (SMILES) | IC50 [1] [µM] | MIC (Streptococcus pyogenes) [µg/mL] | MIC [2] [µg/mL] | MIC ([3]; Streptococcus pneumoniae, marked *: not tested for S. pneumoniae) [µg/mL] | MIC ([3]; tested for SA, SE, SP and SPn) [µg/mL]
1 | CC(C)CCC(=O)NCCNC(=O)[C@H](O)C(C)(C)CO [CXP14.18-005] | 2.78 | 8 (≈ 27.7 µM) | – | – | –
2 | C=CCCC(=O)NCCNC(=O)[C@H](O)C(C)(C)CO [CXP14.18-007] | 5.15 | 16 (≈ 58.7 µM) | – | – | –
3 | CCCCCCCCCCC(=O)NCCNC(=O)[C@H](O)C(C)(C)CO [CXP14.18-012] | > 10 | – | 8 (≈ 22.3 µM) | – | –
4 | C=CC(C)CC(=O)NCCNC(=O)[C@H](O)C(C)(C)CO (stereo partly shown) [CXP14.18-014] | 4.93 | 16 (≈ 55.9 µM) | – | – | –
5 | CCCC(=O)NCCNC(=O)[C@H](O)C(C)(C)CO [CXP14.18-020] | 2 | 32 (≈ 123 µM) | – | – | –
6 | CCOCCC(=O)NCCNC(=O)[C@H](O)C(C)(C)CO [CXP14.18-035] | > 10 | 16 (≈ 55.1 µM) | – | – | –
7 | CCCSCC(=O)NCCNC(=O)[C@H](O)C(C)(C)CO [CXP14.18-037] | 1.34 | 4 (≈ 13.1 µM) | – | – | –
8 | CC(C)(CO)[C@@H](O)C(=O)NCCNC(=O)Cc1ccccc1 [CXP18.6-007] | 3.9 | 16 (≈ 51.9 µM) | – | – | –
9 | CC(C)(CO)[C@@H](O)C(=O)NCCCNC(=O)Cc1ccccc1 [CXP18.6-009] | 9.2 | – | – | – | > 32

These reach a lower IC50 [1]. Values come first.

Row | IC50 [1] [µM] | MIC (Streptococcus pyogenes) [µg/mL] | MIC [2] [µg/mL] | MIC ([3]; Streptococcus pneumoniae, marked *: not tested for S. pneumoniae) [µg/mL] | MIC ([3]; tested for SA, SE, SP and SPn) [µg/mL] | Structure (SMILES)
10 | 0.85 | 2 (≈ 7.29 µM) | – | – | – | CCCCC(=O)NCCNC(=O)[C@H](O)C(C)(C)CO [CXP14.18-028]
11 | 0.81 | 32 (≈ 113 µM) | – | – | – | C#CCCCC(=O)NCCNC(=O)[C@H](O)C(C)(C)CO [CXP14.18-016]
12 | 0.74 | 16 (≈ 55.9 µM) | – | – | – | C=CCCCC(=O)NCCNC(=O)[C@H](O)C(C)(C)CO [CXP14.18-008]
13 | 0.71 | 16 (≈ 53.3 µM) | – | – | – | C=CCCCCC(=O)NCCNC(=O)[C@H](O)C(C)(C)CO [CXP14.18-010]
14 | 0.62 | 8 (≈ 26.1 µM) | – | – | – | CSCCCC(=O)NCCNC(=O)[C@H](O)C(C)(C)CO [CXP14.18-034]
15 | 0.57 | – | 16 (≈ 47.6 µM) | – | – | CC(C)(CO)[C@@H](O)C(=O)NCCNC(=O)CCCc1ccccc1 [CXP18.6-008]
16 | 0.37 | 8 (≈ 26.1 µM) | – | – | – | CCSCCC(=O)NCCNC(=O)[C@H](O)C(C)(C)CO [CXP14.18-038]
17 | 0.17 | – | – | > 32 | – | CCC(=O)NCCNC(=O)[C@H](O)C(C)(C)CO [CXP14.18-019]
